Test results reported in patent US20240084258A1, “METHOD FOR PREPARING BROWN ADIPOCYTE” (KYOTO PREFECTURAL PUBLIC UNIVERSITY CORPORATION, priority 2015, published 2024).

Tests used:
Assay type in all cases: cell-based
[1] = test system: human dermal fibroblasts (HDFs); experiment: UCP1 gene mRNA, comparison of four inhibitors at 4-16 μM (Example 15); settings: for induction efficiency into brown adipocytes (order): compound at 4, 8, 12 or 16 μM up to Day 9, UCP1 mRNA on day 14, FIG. 15; for UCP1 gene expression (conversion to brown adipocytes): compound at 4, 8, 12 or 16 μM up to Day 9, then without compound Day 9-14, FIG. 15
Description: (§1) (Day −1). In the control (Ctrl) group, the culture supernatant of the next day (Day 0) was removed by suction and the cells were cultured in a normal medium up to day 14 while substituting the medium with a fresh one once every other day. In groups other than the control (Ctrl) group, the culture supernatant was removed by suction on day 0, an adipocyte induction medium or an adipocyte induction medium added with any of ALK5 inhibitor II, SB431542, LY2157299 and D4476 at a concentration of 4 μM, 8 μM, 12 μM or 16 μM respectively was added at 1 mL/well.
Thereafter, the cells were cultured in an adipocyte induction medium free of any compound of ALK5 inhibitor II, SB431542, LY215799 and D4476 during Day 9-Day 14.

[2] = test system: human dermal fibroblasts (HDFs); experiment: UCP1, CIDEA and KCNK3 gene mRNA by real time RT-PCR (Example 17); settings: ALK5 inhibitor II 4 μM or LY2157299 8 μM up to Day 9, day 14, FIG. 17
Description: as §1, with “and” for “an adipocyte induction medium or”, “II (4 μM) and” for “II, SB431542,”, “(8 μM)” for “and D4476 at a concentration of 4 μM, 8 μM, 12 μM or 16 μM respectively”
Thereafter, the cells were cultured in an adipocyte induction medium free of any compound of ALK5 inhibitor II and LY215799 during Day 9-Day 14. On day 14, the medium was removed by suction from the wells of all groups, and the cells were washed with PBS(−).

[3] = test system: human dermal fibroblasts (HDFs); experiment: UCP1 protein immunostaining, comparison of four inhibitors (Example 16); settings: ALK5 inhibitor II 4 μM, LY2157299 8 μM; for UCP1 protein expression by immunostaining (induction into brown adipocytes): SB431542 4 μM, D4476 4 μM up to Day 9, day 14, FIG. 16A, 16B
Description: Thereafter, the cells were cultured in an adipocyte induction medium free of any compound of ALK5 inhibitor II, SB431542, LY215799 and D4476 during Day 9-Day 14. On day 14, the medium was removed by suction from each well, and the cells were washed with PBS(−).

[4] = test system: human dermal fibroblasts (HDFs); experiment: UCP1 protein immunostaining, fluorescence intensity (Example 8); settings: for UCP1 protein expression by immunostaining (conversion to brown adipocytes): induction medium + T3 + Rosiglitazone, D4476, SB431541, ALK5 inhibitor II, FSK 2 μM, PD0325901 1 μM, day 14, FIG. 8A-C
Description: (§2) The next day, the culture supernatant was removed by suction and, as described in the Figure, a normal medium, an adipocyte induction medium, or an adipocyte induction medium added with each compound and the like was added at 500 μL/well. […] The concentrations of the additives are as follows: • T3: 1 nM • Rosiglitazone: 1 μM • […]: 2 μM • SB431541: 2 μM • ALK5 inhibitor II: 2 μM • PD0325901: 1 μM • Forskolin (FSK): 2 μM. The culture medium was substituted by a fresh one every 3-4 days and the cells were cultured up to day 14. […] The cells were photographed at a magnification of 200 with a fluorescence microscope and the fluorescence intensity was measured.

[5] = test system: human dermal fibroblasts (HDFs); experiment: UCP1 gene mRNA by real time RT-PCR (Example 2); settings: induction medium + T3 + Rosiglitazone, D4476 2 μM, FSK 2 μM, PD0325901 1 μM, SB431542 2 μM, day 14, FIG. 2
Description: (§3) This was seeded in a 24-well plate at a concentration of 1×10^4 cells/well (day 0), and culturing was started at 5% CO2/95% humid air, 37° C. The next day, the culture supernatant was removed by suction and, as described in the Figure, a normal medium, an adipocyte induction medium, or an adipocyte induction medium added with each low-molecular compound and the like was added at 500 μL/well. […] The concentrations of the additives are as follows: • T3: 1 nM • Rosiglitazone: 1 μM • D4476: 2 μM • Pifithrin alpha [p53 inhibitor]: 5 μM • Forskolin (FSK): 2 μM • PD0325901: 1 μM • SB431542: 2 μM. The culture medium was substituted by a fresh one every 3-4 days and the cells were cultured up to day 14.

[6] = test system: human dermal fibroblasts (HDFs); experiment: CIDEA gene mRNA by real time RT-PCR (Example 4); settings: induction medium + T3 + Rosiglitazone, compounds 2 μM, day 14, FIG. 4
Description: (§4) The next day, the culture supernatant was removed by suction and, as described in the Figure, a normal medium, an adipocyte induction medium, or an adipocyte induction medium added with each compound and the like was added at 500 μL/well. […] The concentrations of the additives are as follows: • T3: 1 nM • Rosiglitazone: 1 μM • D4476: 2 μM • Pifithrin alpha [p53 inhibitor]: 5 μM • SB431542: 2 μM • ALK5 Inhibitor II: 2 μM. The culture medium was substituted by a fresh one every 3 4 days and the cells were cultured up to day 14.

[7] = test system: human dermal fibroblasts (HDFs); experiment: BODIPY staining of lipid droplets (Example 7); settings: induction medium + T3 + Rosiglitazone, compounds 2 μM, day 14, FIG. 7A, 7B
Description: as §2, with “each low-molecular-weight” for “each”, “II:” for “II: 2 μM • PD0325901: 1 μM • Forskolin (FSK):”

[8] = test system: human dermal fibroblasts (HDFs); experiment: AdipoQ gene mRNA by real time RT-PCR (Example 6); settings: induction medium + T3 + Rosiglitazone, D4476, SB431542, ALK5 Inhibitor II 2 μM, PD0325901 1 μM, day 14, FIG. 6
Description: as §3, with “with each low-molecular-weight compound and” for “with each low-molecular compound and”, “D4476: 2 μM. • Pifithrin” for “D4476: 2 μM • Pifithrin”, “μM • PD0325901: 1” for “μM • Forskolin (FSK): 2 μM • PD0325901: 1”, “• SB431542: 2 μM • ALK5 Inhibitor II: 2 μM.” for “• SB431542: 2 μM.”

[9] = test system: human dermal fibroblasts (HDFs); experiment: Oil Red O staining of fibroblasts cultured with compounds (Example 1); settings: adipocyte induction medium with T3 1 nM and Rosiglitazone 1 μM, D4476 2 μM, SB431542 2 μM, ALK5 Inhibitor II 2 M, Pifithrin alpha 5 μM, day 14, FIG. 1
Description: The next day, the culture supernatant was removed by suction and, as described in the Figure, a normal medium, an adipocyte induction medium, or an adipocyte induction medium added with the compound and the like was added at 500 μL/well.
The adipocyte induction medium is a 10% FBS-added DMEM+MDI medium (10% FBS-added DMEM supplemented with 0.5 mM isobutylmethylxanthine (IBMX), 0.5 μM dexamethason and 1 μg/mL Insulin).
The concentrations of the additives are as follows: • T3: 1 nM • Rosiglitazone: 1 μM • D4476: 2 μM • Pifithrin alpha [p53 inhibitor]: 5 μM • SB431542: 2 μM • ALK5 Inhibitor II: […].
The culture medium was substituted by a fresh one every 3-4 days and the cells were cultured up to day 14.
After washing 3 times with sterile distilled water, Oil Red O staining solution was added, and the mixture was incubated at room temperature for 15 min. Then, the cells were washed with sterile distilled water and photographed at a magnification of 100 with a phase contrast microscope.

[10] = test system: human dermal fibroblasts (HDFs); experiment: UCP1 mRNA response of induced cells to Isoproterenol or FSK stimulation (Example 3); settings: cells cultured 14 days with T3, Rosiglitazone and D4476, then 10 μM Isoproterenol or FSK for 5 hr; FIG. 3
Description: 10 μM Isoproterenol or FSK was added to these cells as described in the Figure. As a control, a group free of the addition was also prepared. After 5 hr, the culture medium was removed from each well by suction, the cells were washed with PBS(−) and total RNA was extracted from the cells with ISOGEN II. qRT-PCR was performed in the same manner as in Example 2. The mRNA level of UCP1 gene was quantified as a ratio to […] gene mRNA and calculated with the value of fibroblast cultured in the normal medium as 1.

[11] = test system: human dermal fibroblasts (HDFs); experiment: PGC-1alpha gene mRNA by real time RT-PCR (Example 5); settings: induction medium + T3 + Rosiglitazone, FSK 2 μM, PD0325901 1 μM, day 14, FIG. 5
Description: as §4, with “•” for “• D4476: 2 μM •”, “Forskolin (FSK):” for “SB431542:”, “PD0325901: 1” for “ALK5 Inhibitor II: 2”, “3-4” for “3 4”

| Compound | induction efficiency into brown adipocytes (order) [1] | UCP1 gene expression (conversion to brown adipocytes) [1] | UCP1 protein expression by immunostaining (induction into brown adipocytes) [3] | UCP1 protein expression by immunostaining (conversion to brown adipocytes) [4] | mRNA expression of UCP1 gene (conversion to brown adipocytes) [5] | mRNA expression of AdipoQ gene (conversion to brown adipocytes) [8] | Oil Red O staining [9] | further results |
| --- | --- | --- | --- | --- | --- | --- | --- | --- |
| Cc1cccc(-c2nn3c(c2-c2ccnc4ccc(C(N)=O)cc24)CCC3)n1 [LY2157299, 4-[5,6-dihydro-2-(6-methyl-2-pyridinyl)-4H-pyrrolo[1,2-b]pyrazol-3-yl]-6-quinolinecarboxamide] | second most strong | converted to brown adipocytes strongly expressing UCP1 gene | induced into brown adipocytes expressing UCP1 protein | – | – | – | – | CIDEA gene expression [2]: induced into brown adipocytes expressing UCP1 gene, CIDEA gene and KCNK3 gene; KCNK3 gene expression [2]: induced into brown adipocytes expressing UCP1 gene, CIDEA gene and KCNK3 gene; UCP1 gene expression [2]: induced into brown adipocytes expressing UCP1 gene, CIDEA gene and KCNK3 gene; strength of induction of UCP1 expression (order) ([3]; immunostaining day 14, FIG. 16): second most strong |
| NC(=O)c1ccc(-c2nc(-c3ccc4c(c3)OCO4)c(-c3ccccn3)[nH]2)cc1 [SB431542, 4-[4-(1,3-Benzodioxol-5-yl)-5-(pyridin-2-yl)-1H-imidazol-2-yl]benzamide] | ALK5 inhibitor II>LY2157299>SB431541>D4476 | converted to brown adipocytes strongly expressing UCP1 gene | induced into brown adipocytes expressing UCP1 protein | converted to brown adipocytes expressing UCP1 protein | induced to brown adipocytes that express mRNA of UCP1 gene | converted to brown adipocytes expressing mRNA of AdipoQ gene | Remarkable Oil Red O staining | mRNA expression of CIDEA gene (conversion to brown adipocytes) [6]: converted to brown adipocytes expressing mRNA of CIDEA gene; lipid droplets stained with BODIPY (conversion to brown adipocytes) [7]: converted to brown adipocytes having lipid droplets stained with BODIPY |
| CC(C)NCC(O)c1ccc(O)c(O)c1 (centres unmarked) [Isoproterenol, isoproterenol] | – | – | – | – | – | – | – | UCP1 mRNA expression on stimulation [10]: more strongly express UCP1 mRNA |
| O=C(NOC[C@H](O)CO)c1ccc(F)c(F)c1Nc1ccc(I)cc1F [PD0325901] | – | – | – | converted to brown adipocytes expressing UCP1 protein | induced to brown adipocytes that express mRNA of UCP1 gene | converted to brown adipocytes expressing mRNA of AdipoQ gene | – | change of expression of UCP-1 protein by addition culture ([4]; PD0325901 1 μM or Forskolin 2 μM, day 14, FIG. 8B): increases; mRNA expression of PGC-1alpha gene (conversion to brown adipocytes) [11]: converted to brown adipocytes expressing mRNA of PGC-1alpha gene |
| Cc1ccc(C(=O)Cn2c3c(sc2=N)CCCC3)cc1 [Pifithrin alpha] | – | – | – | – | – | – | hardly observed | – |
